Test results as given in US20240366728A1, “Treatment of Diabetes Mellitus” (Carmot Therapeutics Inc., priority 2023, published 2024).
Entries after “also recorded” stand apart in the source; their conditions may differ. Marks after values point to notes of the source that are not given here.

What was measured:
[1] = target: T1, human GLP-1R (Homo sapiens, UniProt P43220); experiment: β-arrestin-2 recruitment (NanoBiT), human GLP-1R; format: cell-based; details: read-out: hGLP-1R β-arrestin-2 % Emax; Table 17
T1 sequence (P43220 24-463): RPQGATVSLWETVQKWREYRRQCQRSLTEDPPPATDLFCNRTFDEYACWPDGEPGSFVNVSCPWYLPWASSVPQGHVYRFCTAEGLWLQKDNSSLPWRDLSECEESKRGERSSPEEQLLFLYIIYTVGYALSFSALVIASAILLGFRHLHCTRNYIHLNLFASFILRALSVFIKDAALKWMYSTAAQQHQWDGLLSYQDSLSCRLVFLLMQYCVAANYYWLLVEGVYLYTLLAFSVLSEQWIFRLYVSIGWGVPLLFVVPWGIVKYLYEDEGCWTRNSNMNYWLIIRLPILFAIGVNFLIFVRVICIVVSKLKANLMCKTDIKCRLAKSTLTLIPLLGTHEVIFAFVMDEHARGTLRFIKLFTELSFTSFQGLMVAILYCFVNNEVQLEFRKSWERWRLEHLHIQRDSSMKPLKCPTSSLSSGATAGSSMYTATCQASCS
Method: To measure GLP-1R and GIPR-mediated β-arrestin recruitment, we utilized Promega's NanoBiT® technology or NanoLuc® Binary Technology. The NanoLuc luciferase is split into two subunits, called LgBiT and SmBIT, which are expressed in HEK293 cells as fusion proteins at the C-terminus of GLP-IR or GIPR and the N-terminus of β-arrestin-2. […] The next day, the media was removed and replaced with […] 1:100 dilution of Nano-Glo® Live Cell Substrate in Opti-MEM™ and equilibrated to room temperature for ten minutes. Background luminescence was measured before 10 nL compound was added using an ECHO Acoustic Liquid Handler.
To measure GLP-1R and GIPR-mediated β-arrestin recruitment, Promega's NanoBiT® technology or NanoLuc® Binary Technology were utilized. Both allow for the detection and quantification of protein: protein interactions in live cells (Samms et al., Trends Endocrinol Metab 31:410-21). The NanoLuc luciferase is split into two subunits, called LgBiT and SmBIT, which are expressed in HEK293 cells as fusion proteins at the C-terminus of GLP-1R or GIPR and the N-terminus of β-arrestin-2, respectively. […] Background luminescence was measured before 10 nL compound was added using an ECHO Acoustic Liquid Handler. Luminescence was measured at 1.5-minute intervals for 30 minutes.

[2] = tested on: participants with obesity and participants with T2DM; experiment: CT-868-003 crossover study: safety; format: in vivo, human; details: for Infections and infestations / Urinary tract infection: Table 24
Excerpt: Safety assessments of this study included treatment-emergent adverse events (TEAEs), serious adverse events (SAEs), adverse events of special interest (AESI), vital signs, 12-lead electrocardiogram (ECG), clinical lab evaluations, and physical exam.
Safety assessments which occurred throughout the entire study, included monitoring of incidence and severity of AEs, treatment-emergent AEs (TEAEs) and AEs of special interest (AESIs) (e.g., GI events, hypoglycemia), clinical laboratory abnormalities (ECGs, chemistry, hematology, and urinalysis), and changes in vital sign measurements (BP, heart rate, respiratory rate, and aural temperature).
AE terms recorded by the Investigator were coded to system organ class (SOC) and preferred term (PT) using the Medical Dictionary for Regulatory Activities (MedDRA) version 24.0. Severity was collected using the Common Terminology Criteria for AEs (CTCAE) version 5.0 Toxicity Grade. Events with missing severity were summarized as Grade 3. TEAEs summarized by severity counted each participant once for the maximum severity within each SOC and PT within each in-house treatment period and overall. TEAEs marked with a relationship to study treatment as definitely, probable, possible, or missing were considered as related TEAEs. Events with missing relationship to study treatment were summarized as related. The number and percentage of participants with TEAEs were summarized by MedDRA-coded SOCs and PTs.

[3] = in vivo
[4] = toxicology studies; details: highest dose tested
[5] = target: T2, human GIPR (Homo sapiens, UniProt P48546); experiment: cAMP accumulation, SNAP-human GIPR CHO-K1 cells
T2 sequence (P48546 22-466): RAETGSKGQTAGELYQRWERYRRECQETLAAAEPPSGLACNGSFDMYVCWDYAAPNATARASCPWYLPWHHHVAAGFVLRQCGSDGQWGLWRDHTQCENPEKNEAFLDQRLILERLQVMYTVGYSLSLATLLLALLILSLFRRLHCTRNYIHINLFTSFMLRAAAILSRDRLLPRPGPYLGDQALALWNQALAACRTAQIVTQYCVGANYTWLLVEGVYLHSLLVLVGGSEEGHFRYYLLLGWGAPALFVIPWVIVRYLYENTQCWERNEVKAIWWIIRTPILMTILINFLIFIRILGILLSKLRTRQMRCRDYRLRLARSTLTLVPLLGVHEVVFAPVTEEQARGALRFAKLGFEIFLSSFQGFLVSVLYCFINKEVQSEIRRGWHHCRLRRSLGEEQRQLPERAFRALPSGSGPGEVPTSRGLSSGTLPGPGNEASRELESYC

[6] = target: T1, human GLP-1R; experiment: cAMP accumulation, SNAP-human GLP-1R CHO-K1 cells
[7] = tested on: GIPR+/+ and GIPR-/- mice; experiment: intraperitoneal glucose tolerance test in GIPR+/+ and GIPR-/- mice; format: in vivo, mouse
[8] = in vivo; details: CD-1, mouse, plasma, sc
Method: (§1) First reader's note: The heading '1 mg/kg SC mouse' is printed over the plot above the table and gives dose, route and species for the pharmacokinetic parameters.

[9] = 1 mg/kg SC mouse
Method: as §1

[10] = tested on: GLP-1R+/+ and GLP-1R-/- mice; experiment: intraperitoneal glucose tolerance test in GLP-1R+/+ and GLP-1R-/- mice
[11] = Part 1 (participants with obesity)
[12] = Part 2 (participants with T2DM)

**Q.** With `CCCCCCCCCCCCCCCC(=O)N[C@@H](CCC(=O)NCCCC[C@H](NC(=O)[C@H](CO)NC(=O)[C@@H]1CCCN1C(=O)[C@@H]1CCCN1C(=O)[C@@H]1CCCN1C(=O)[C@H](C)NC(=O)CNC(=O)[C@H](CO)NC(=O)[C@H](CO)NC(=O)[C@@H]1CCCN1C(=O)CNC(=O)CNC(=O)[C@H](C)NC(=O)[C@H](CC(C)C)NC(=O)[C@H](CC(C)C)NC(=O)[C@H](Cc1c[nH]c2ccccc12)NC(=O)[C@H](CC(N)=O)NC(=O)[C@@H](NC(=O)[C@H](Cc1ccccc1)NC(=O)[C@H](CCC(=O)O)NC(=O)C(C)(C)NC(=O)[C@H](C)NC(=O)[C@H](C)NC(=O)[C@H](CCC(N)=O)NC(=O)[C@H](CCCCN)NC(=O)[C@H](CC(=O)O)NC(=O)[C@H](CC(C)C)NC(=O)[C@H](Cc1ccc(O)cc1)NC(=O)[C@@H](NC(=O)[C@H](CO)NC(=O)[C@H](Cc1ccc(O)cc1)NC(=O)[C@H](CC(=O)O)NC(=O)[C@H](CO)NC(=O)[C@@H](NC(=O)[C@H](Cc1ccccc1)NC(=O)[C@@H](NC(=O)CNC(=O)[C@H](CCC(=O)O)NC(=O)CSCC(=O)NCCN1CCCCC1=O)[C@@H](C)O)[C@@H](C)O)[C@@H](C)CC)C(C)C)C(N)=O)C(=O)O` [CT-868] as the compound, how does the Emax [1] read?
**A.** 1.5%

**Q.** What about the Infections and infestations [2, 11] of the same compound?
**A.** 0 n (%)

**Q.** And the Urinary tract infection [2, 11]?
**A.** 0 n (%)

**Q.** What about the Infections and infestations [2, 12] of the same compound?
**A.** 0 n (%)

**Q.** And the Urinary tract infection [2, 12]?
**A.** 0 n (%)

**Q.** And the “AEs of Special Interest (AESI) Total” value ([2]; in vivo)?
**A.** 10 (50.0) n (%)

**Q.** What about the “Any AESIs, Grade 2” value ([2]; in vivo) of the same compound?
**A.** 1 (8.3%) n (%)

**Q.** What about the Arthralgia ([2]; in vivo) of the same compound?
**A.** 0 n (%)

**Q.** What about the “At Least 1 Study Drug Related TEAE” value ([2]; in vivo) of the same compound?
**A.** 9 (45.0) n (%)

**Q.** What about the “At Least 1 TEAE” value ([2]; in vivo) of the same compound?
**A.** 14 (70.0) n (%)

**Q.** And the Back pain ([2]; in vivo)?
**A.** 0 n (%)

**Q.** And the Coagulation test abnormal ([2]; in vivo)?
**A.** 0 n (%)

**Q.** What about the Dermatitis ([2]; in vivo) of the same compound?
**A.** 0 n (%)

**Q.** What about the “GI side effects (in words)” value ([2]; in vivo) of the same compound?
**A.** mostly mild and transient

**Q.** And the Hypoglycemia ([2]; in vivo)?
**A.** 7 (35.0) n (%)

**Q.** What about the “Injection Site Reaction” value ([2]; in vivo) of the same compound?
**A.** 1 (5.0) n (%)

**Q.** What about the Investigations ([2]; in vivo) of the same compound?
**A.** 0 n (%)

**Q.** And the “Musculoskeletal and connective tissue disorders” value ([2]; in vivo)?
**A.** 0 n (%)

**Q.** What about the SAEs ([2]; in vivo) of the same compound?
**A.** 0 n (%)

**Q.** What about the “Treatment Discontinuation” value ([2]; in vivo) of the same compound?
**A.** 1 (5.0)* n (%)

**Q.** What about the “participants with Grade 1 hypoglycemia events” value ([2]; in vivo) of the same compound?
**A.** 7 participants

**Q.** And the “tolerability (in words)” value ([2]; in vivo)?
**A.** well tolerated

**Q.** And the “vital signs, ECG parameters, laboratory values (in words)” value ([2]; in vivo)?
**A.** no clinically significant CT-868-related changes

**Q.** And the “highest tested dose exceeds pharmacologically active dose by” value [3]?
**A.** 100 fold

**Q.** And the “vomiting (in words)” value [3]?
**A.** no instances of vomiting

**Q.** What about the “tolerability in toxicology studies (in words)” value [4] of the same compound?
**A.** well-tolerated at the highest dose tested

**Q.** And the Emax ([5]; CHO-K1, read-out: hGIPR cAMP (-alb) % Emax)?
**A.** 41%

**Q.** What about the EC50 ([5]; potency activating cAMP at human GIPR, value of b126) of the same compound?
**A.** ~3.3 nM

**Q.** And the Emax ([6]; CHO-K1, read-out: hGLP-1R cAMP (-alb) % Emax)?
**A.** 92%

**Q.** What about the EC50 ([6]; potency activating cAMP at human GLP-1R, value of b126) of the same compound?
**A.** ~0.17 nM

**Q.** Which “reduction in GLUC AUC in GTT” value ([7]; 20 nmol/kg, 4 h after dosing) does the source give for `CCCCCCCCCCCCCCCC(=O)N[C@@H](CCC(=O)NCCCC[C@H](NC(=O)[C@H](CO)NC(=O)[C@@H]1CCCN1C(=O)[C@@H]1CCCN1C(=O)[C@@H]1CCCN1C(=O)[C@H](C)NC(=O)CNC(=O)[C@H](CO)NC(=O)[C@H](CO)NC(=O)[C@@H]1CCCN1C(=O)CNC(=O)CNC(=O)[C@H](C)NC(=O)[C@H](CC(C)C)NC(=O)[C@H](CC(C)C)NC(=O)[C@H](Cc1c[nH]c2ccccc12)NC(=O)[C@H](CC(N)=O)NC(=O)[C@@H](NC(=O)[C@H](Cc1ccccc1)NC(=O)[C@H](CCC(=O)O)NC(=O)C(C)(C)NC(=O)[C@H](C)NC(=O)[C@H](C)NC(=O)[C@H](CCC(N)=O)NC(=O)[C@H](CCCCN)NC(=O)[C@H](CC(=O)O)NC(=O)[C@H](CC(C)C)NC(=O)[C@H](Cc1ccc(O)cc1)NC(=O)[C@@H](NC(=O)[C@H](CO)NC(=O)[C@H](Cc1ccc(O)cc1)NC(=O)[C@H](CC(=O)O)NC(=O)[C@H](CO)NC(=O)[C@@H](NC(=O)[C@H](Cc1ccccc1)NC(=O)[C@@H](NC(=O)CNC(=O)[C@H](CCC(=O)O)NC(=O)CSCC(=O)NCCN1C(=O)CSC1=O)[C@@H](C)O)[C@@H](C)O)[C@@H](C)CC)C(C)C)C(N)=O)C(=O)O` [CT-859] here?
**A.** 62%

**Q.** What about the “glucose lowering (in words)” value ([7]; 20 and 200 nmol/kg) of the same compound?
**A.** efficacious at lowering glucose levels

**Q.** What about the “duration of glucose lowering (in words)” value ([7]; single 20 nmol/kg, ipGTT at 4, 24, 48 h) of the same compound?
**A.** maintained its activity at 24 and 48 hours; also recorded: maintained significant reduction after 24 h and 48 h

**Q.** What about the Cmax [8] of the same compound?
**A.** 324 nM

**Q.** And the half-life [8]?
**A.** 8.72 h

**Q.** What about the “AUClast” value [9] of the same compound?
**A.** 3.579 µM·h

**Q.** And the “Tmax” value [9]?
**A.** 4.0 h

**Q.** What about the “GLUC AUC during IPGTT (in words)” value ([10]; GLP-1R knockout mice, 20 nmol/kg) of the same compound?
**A.** no effect on GLUC AUC

**Q.** And the glucose levels lowered ([10]; GLP-1R+/+ mice, 200 nmol/kg)?
**A.** 75%

**Q.** And the “glucose lowering (in words)” value ([10]; GLP-1R+/+ mice, 20 and 200 nmol/kg)?
**A.** lowered the post-prandial glucose levels equally and significantly compared to vehicle

**Q.** What about the “glucose lowering (in words)” value ([10]; GLP-1R-/- mice, 20 nmol/kg) of the same compound?
**A.** ineffective at lowering glucose levels

**Q.** What about the “glucose levels lowered compared to vehicle” value ([10]; GLP-1R-/- mice, 200 nmol/kg) of the same compound?
**A.** 46%
